This is an account of results in patent publication US4801579A, “Novel cystine compounds, their preparation and use” (Bleiberger Bergwerks Union, priority 1986, dated 1989).

Series [1] can be described thus: heat sterilization stability of the novel cystine compounds. The series is classed as physicochemical. The conditions noted are these: for instance heating to 120° C. for 5 minutes. On the procedure:
So, for instance, infusion solutions are prepared by dissolving the purified peptide and the desired amino acid in distilled water. Mineral salts and other substances may further be added to these solutions. Prior to administration, they must be isotonically adjusted. Up to now, it has not been possible to sterilize such solutions in the usual manner (5 minutes, 120° C., pH 5.5 to 7.5) without the decomposition of the cystine-containing component. The novel peptides according to the invention permit a heat treatment of the above-mentioned infusion solution without the decomposition of the cystine derivative.

A short description of series [2]: water solubility of the novel cystine compounds. The series is classed as physicochemical. On the procedure:
(§1) 0.5 g bis-(acetylglycyl)-L,L-cystine are dissolved in 50 ml distilled water. The pH is adjusted to 6.5 by the addition of a 1N sodium hydrogen carbonate solution and then diluted with distilled water to a volume of 100 ml. Of this solution, an HPLC chromatogram is made immediately. The solution is then heated on a boiling water bath.

A short description of series [3]: Testing of the water solubility and thermal stability of bis-(acetylglycyl)-L,L-cystine (HPLC after heating on boiling water bath). The series is classed as physicochemical. The note with it: 0.5 g in 100 ml water, pH 6.5, boiling water bath, after 10, 20 and 30 minutes of heating. On the procedure: as §1
For series [4] the following is noted: heat treatment (sterilization) of solutions; cited from earlier work.

Positions of bridges follow the written chain, without caps; N, C: chain ends. Residues, ends and D or L forms follow the SMILES beside them. Chains are numbered I, II in the order given.

In the case of `CC(=O)NCC(=O)N[C@@H](CSSC[C@H](NC(=O)CNC(C)=O)C(=O)O)C(=O)O` [bis-(acetylglycyl)-L,L-cystine] (I: Ac-Gly-Cys-OH / II: Ac-Gly-Cys-OH; disulfide I:2-II:2), in series [1], the “stability to heat sterilization” value is recorded as “stable enough to be heat-sterilizable”. In addition, the solubility in water result in series [2] was “well soluble in water”. Besides, the “change of HPLC chromatogram after heating” value in series [3] is “does not show any essential changes”.

Take `N[C@@H](CS)C(=O)O` [L-cysteine]: in series [4], the “resistance to heat treatment / thermal stability” value is on record as “not resistant to heat treatment”.

As for `N[C@@H](CSSC[C@H](N)C(=O)O)C(=O)O` [L,L-cystine], the “resistance to heat treatment / thermal stability” value in series [4] was “stable against heat treatment”.
